In data set [1] the target is T1, AT4 receptor (Bos taurus, UniProt F1N1Q8).
T1 sequence (F1N1Q8 1-1022): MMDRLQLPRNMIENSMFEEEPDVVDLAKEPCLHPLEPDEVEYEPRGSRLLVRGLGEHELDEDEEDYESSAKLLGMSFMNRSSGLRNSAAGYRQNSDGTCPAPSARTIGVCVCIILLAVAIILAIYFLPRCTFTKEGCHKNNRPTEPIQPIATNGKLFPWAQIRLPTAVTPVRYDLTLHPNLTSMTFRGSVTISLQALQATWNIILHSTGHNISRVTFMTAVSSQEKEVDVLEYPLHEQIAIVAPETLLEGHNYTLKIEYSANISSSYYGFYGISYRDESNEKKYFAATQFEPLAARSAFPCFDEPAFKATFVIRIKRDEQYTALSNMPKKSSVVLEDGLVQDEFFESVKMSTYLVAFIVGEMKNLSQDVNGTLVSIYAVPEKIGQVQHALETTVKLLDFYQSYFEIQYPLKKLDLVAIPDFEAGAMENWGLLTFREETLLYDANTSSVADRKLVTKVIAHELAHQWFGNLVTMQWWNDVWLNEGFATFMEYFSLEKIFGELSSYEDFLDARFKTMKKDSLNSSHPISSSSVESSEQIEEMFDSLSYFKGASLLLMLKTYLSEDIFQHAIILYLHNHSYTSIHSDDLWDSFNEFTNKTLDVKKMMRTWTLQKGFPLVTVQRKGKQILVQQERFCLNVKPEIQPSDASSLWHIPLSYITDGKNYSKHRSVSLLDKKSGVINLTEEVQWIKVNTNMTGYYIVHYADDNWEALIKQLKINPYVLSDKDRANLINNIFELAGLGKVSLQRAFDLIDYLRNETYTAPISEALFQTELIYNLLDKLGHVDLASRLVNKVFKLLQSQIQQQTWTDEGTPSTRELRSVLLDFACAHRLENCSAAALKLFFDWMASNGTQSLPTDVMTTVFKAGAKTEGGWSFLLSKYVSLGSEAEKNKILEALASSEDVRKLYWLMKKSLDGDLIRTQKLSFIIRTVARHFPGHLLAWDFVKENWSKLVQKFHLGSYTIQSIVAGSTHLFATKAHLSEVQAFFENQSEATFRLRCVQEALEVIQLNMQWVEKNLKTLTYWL
Briefly: 125I-AIV binding and competition, bovine adrenal cortical membranes.

Data set [2] concerns the target T1, AT4 receptor. The experiment in a line: 125I-AIV binding and competition, solubilized bovine adrenal cortical receptor.
The target of data set [3] is T1, AT4 receptor. Briefly: 125I-AIV binding and competition, coronary venular endothelial cell (CVEC) membranes. Set-up: species or system bovine.
The conditions of data set [4]: arterial and venous blood in man; cited from earlier work.
Data set [5] has as its target T2, AT1 receptor (AII receptor) (Bos taurus, UniProt P25104).
T2 construct: from tissue; host or cells: bovine adrenal cortex membranes
T2 sequence (P25104 1-359): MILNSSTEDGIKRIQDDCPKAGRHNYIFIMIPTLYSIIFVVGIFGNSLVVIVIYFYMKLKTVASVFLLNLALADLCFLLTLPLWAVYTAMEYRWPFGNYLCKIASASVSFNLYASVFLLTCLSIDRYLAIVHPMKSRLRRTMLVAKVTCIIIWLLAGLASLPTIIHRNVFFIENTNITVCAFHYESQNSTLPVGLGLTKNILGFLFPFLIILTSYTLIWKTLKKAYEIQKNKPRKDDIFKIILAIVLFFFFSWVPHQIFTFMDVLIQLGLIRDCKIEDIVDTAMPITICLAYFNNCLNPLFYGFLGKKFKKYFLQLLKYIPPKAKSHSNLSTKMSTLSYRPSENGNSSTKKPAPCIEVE
It is filed as binding, bovine. The settings on record: competition.

In data set [6] the test system is rat kidney. Briefly: Renal cortical blood flow (laser doppler) and arterial pressure after infusion into the renal artery. It is filed as in vivo.
Data set [7] can be described thus: Metabolism by rat kidney membranes / homogenates.
[8] abbreviates: read-out: 125I-AIV Binding (Ki).

“Also recorded” adds a separate entry of the source. Where two headings read alike, the source gives them in different places. Positions of bridges follow the written chain, without caps; N, C: chain ends. Non-standard residues stand in square brackets, D forms with d. Residues, ends and D or L forms follow the SMILES beside them. No end group written: not given here. *: point of attachment. Ileψ(thiazoline)Cys = CC[C@H](C)[C@H](N)C1=N[C@H](C(=O)*)CS1; NMeI = CC[C@H](C)[C@H](NC)C(=O)O; dOrn = NCCC[C@@H](N)C(=O)O; Nle = CCCC[C@H](N)C(=O)O; Orn = NCCC[C@H](N)C(=O)O; GABA = NCCCC(=O)O Bounds are passed on as bounds.

The Ki is the equilibrium dissociation constant of an inhibitor or competing ligand from its target. Consider `CC[C@H](C)[C@H](NC(=O)[C@@H](N)Cc1ccc(O)cc1)C(=O)N[C@@H](Cc1cnc[nH]1)C(=O)N1CCC[C@H]1C(=O)N[C@@H](Cc1ccccc1)C(=O)O` [AII(4-8), YIHPF] (H-YIHPF-OH), for which the inhibition constant Ki was > 1 µM in data set [1] (setting [8]), > 1 µM in data set [2] and 0.253 ± 0.0891 µM in data set [3] (competition of 0.5 nM 125I-AIV). In addition, the half-lives in data set [4] was 2.4 min.
Turning to `CC[C@H](C)[C@H](NC(=O)[C@@H](N)Cc1ccc(O)cc1)C(=O)N[C@@H](Cc1c[nH]cn1)C(=O)N1CCC[C@H]1C(=O)N[C@@H](Cc1ccccc1)C(=O)O` [AII(4-8), YIHPF] (H-YIHPF-OH; N-terminus and C-terminus assumed), the “decrease in binding affinity relative to AIV” value in data set [1] is given as 1000 fold.
For `CC[C@H](C)[C@H](N)C1=N[C@H](C(=O)N[C@@H](CC(C)C)C(=O)N[C@H](CCC(=O)O)C(=O)N[C@H](C(=O)N[C@H]2CCCCNC(=O)[C@H](CC(N)=O)NC(=O)[C@@H](CC(=O)O)NC(=O)[C@H](Cc3cnc[nH]3)NC(=O)[C@@H](Cc3ccccc3)NC(=O)[C@H]([C@@H](C)CC)NC(=O)[C@@H](CCCN)NC2=O)[C@@H](C)CC)CS1` [Bacitracin, ICLEIKOIFHDD, reference compound] ({Ileψ(thiazoline)Cys}-L[dE]IK[dOrn]I[dF]H[dD]N; lactam 4-C), in data set [1], the “effect on binding of AIV ligand to the AT4 receptor” value is listed as “inhibited”.
On to `CC[C@H](C)[C@H](NC)C(=O)N[C@@H](Cc1ccc(O)cc1)C(=O)N[C@H](C(=O)N[C@@H](Cc1c[nH]cn1)C(=O)N1CCC[C@H]1C(=O)N[C@@H](Cc1ccccc1)C(=O)O)[C@@H](C)CC` [CH3 -I1 YIHPF, N-methyl-Ile1 YIHPF] (H-[NMeI]YIHPF-OH), for which the “decrease in affinity relative to I1YIHPF” value in data set [1] (N-methylation of Ile1) was found to be 67 fold.
Turning to `CCCCc1nc(Cl)c(CO)n1Cc1ccc(-c2ccccc2-c2nn[nH]n2)cc1` [DuP 753, reference compound], the inhibition constant (Ki) in data set [1] (setting [8]) was > 100 µM; in data set [5] it was 0.031 µM; in data set [2], > 100 µM; in data set [3] (unit inferred), > 100 µM.
As usually defined, the Kd is the constant that tells how readily two partners part at equilibrium. The low end stands for a tighter complex, the high end for a looser complex. On to DYIHPF, for which, in data set [1], the Kd is > 1 µM and the “binding affinity for the AT4 receptor (in words)” value (from here on “binding affinity … (in words)”) is listed as “virtually no affinity”.
Regarding F1 YIHPF (FYIHPF), in data set [1], the “decrease in binding affinity relative to AIV” value came to 4 fold.
The same measure, in the same setting: with GABA-YIHPF ([GABA]YIHPF) the figure was 250 fold.
For the compound IYIHPF [I1 YIHPF], the “binding affinity … (in words)” value in data set [1] is given as “only a slight change (an increase) in binding affinity; also recorded: nearly the same binding affinity”.
In the case of KYIHPI [KYIHPI6], the “binding affinity … (in words)” value in data set [1] was “lower affinity than the parent KYIHPF6”; in data set [1] (listed as Lys1 Ile6 -AIV), “lower affinity than Lys1 -AIV”.
NleYIHPF ([Nle]YIHPF): the “maximum increase in renal blood flow” value in data set [6] (0.05 pmole) was 19%; in data set [6] (0.1 pmole), 19%; in data set [6] (10 pmole), 21%. The “increase in renal blood flow” value in data set [6] (100 pmole) is listed as 30%. Further, the “effect on arterial blood pressure (in words)” value in data set [6] (rat, in vivo) is given as “no effect on mean arterial pressure”. In addition, the “agonist / antagonist activity (in words)” value in data set [6] (renal blood flow response compared to AIV, listed as Nle1 -AIV) is on record as “only a partial agonist”; in data set [6] (renal blood flow response compared to AIV, listed as Nle1 YIHPF) it was “partial agonist”.
With OrnYIHPF ([Orn]YIHPF), the “binding affinity … (in words)” value in data set [1] is recorded as “higher binding affinity than AIV”.
Take PYIHPF: the “decrease in binding affinity relative to AIV” value in data set [1] came out at 8 fold.
“V1 Y2 I3 H4 P5 F6 H7 (VYIHPFH) [AI(3-9)]”: the “binding affinity … (in words)” value in data set [1] is “did not alter binding significantly”; in data set [1] (listed as V1 Y2 I3 H4 P5 F6 H7), “does not alter binding”.
For “V1 Y2 I3 H4 P5 F6 H7 L8 (VYIHPFHL) [AI(3-10)]”, the “decrease in binding affinity relative to AIV” value in data set [1] is recorded as 2 fold.
For VF2 IHPF (VFIHPF), in data set [1], the “binding affinity … (in words)” value was “very low affinity”.
Still for that read-out and setting: the entry for “VPIHYF [Phe2 Tyr6 AIV, positions of the Phe and Tyr residues in AIV reversed]” is “very low binding affinity”.
As for VYIH, the “decrease in binding relative to VYIHP” value in data set [1] is listed as 21 fold. For the same compound, the Ki in data set [1] (read-out: Ki) was > 0.5 µM.
With VYIHP [des Phe6 -AIV], the results for the “binding affinity … (in words)” value in data set [1] and in data set [1] (listed as V1 Y2 I3 H4 P5) were “did not alter binding significantly” and “does not alter binding significantly”, respectively. Also, the entries for the “binding to solubilized AT4 receptor (in words)” value in data set [2] (listed as VYIHP) and in data set [2] (listed as desPhe6 -AIV) were “retained AT4 receptor binding activity” and “still retained AIV binding activity”, respectively. For the same compound, in data set [3], the “increase in Ki (decrease in affinity) compared with AIV” value is on record as 7 fold. Moreover, the inhibitory constant (Ki) in data set [3] (competition of 0.5 nM 125I-AIV, read-out: Ki) stood at 0.0073 ± 0.0012 µM.
Turning to VYIHPI [VYIHPI6], the “binding affinity … (in words)” value in data set [1] is reported as “higher affinity than the parent VYIHPF; also recorded: higher binding affinity for the AT4 receptor than AIV”.
For the compound V[D-Y2 ]IHPF [D-Y2 AIV], in data set [1], the “binding affinity … (in words)” value is reported as “very low affinity; also recorded: low binding affinity”. Further, the Ki in data set [2] (read-out: Ki) stood at 0.416 µM.
Turning to “^+ H3 N-Val(CH2 NH)Tyr-Val(CH2 NH)-His-Pro-Phe-COO^- (H-VYVHPF-OH; also: reduced CH2-NH bonds: Val1-Tyr2, Val3-His4) [Val1 Val3 AIV]”, the “binding affinity … (in words)” value in data set [1] is “affinity equal to or better than VYIHPF; also recorded: equal or better affinity than AIV”. Moreover, the Ki in data set [2] (read-out: Ki) was determined as 0.00129 µM. Moreover, in data set [6] (rat, in vivo), the “agonist / antagonist activity (in words)” value is “potent antagonist of AT4 receptor activity”, the “effect of preinfusion on blood flow response to another ligand” value is given as “completely blocks Lys^1 AIV-induced increases in blood flow”, the “effect on arterial blood pressure (in words)” value is given as “did not alter blood pressure or renal blood flow” and the “effect on renal blood flow (in words)” value was “did not alter blood pressure or renal blood flow”. Further, the “stability on exposure to rat kidney (in words)” value in data set [7] is “totally resistant to enzymatic degradation”. In addition, the “stability on exposure to rat kidney (in words)” value in data set [7] (listed as divalinal AIV) is listed as “enhanced metabolic stability”. This compound also gave a remaining intact in data set [7] (rat kidney membranes, 4 hr, room temperature) of 100%.

(Values after patent US5854388A, “Angiotensin IV peptides and receptor” (Washington State University Research Foundation, priority 1994, dated 1998).)
